Experimental data published in patent US20150105252A1, “SUBSTITUTED PYRAZOLES AS HERBICIDES” (E I DU PONT DE NEMOURS AND COMPANY, priority 2013, published 2015).

What was measured:
corn [1] = experiment: Test C postemergence; assay type: in vivo, Zea mays
Summary of the method: (§1)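 In this greenhouse assay, seeded soil (loam plus sand) or emerged seedlings in peat-vermiculite medium were treated with formulated compound. Roughly two weeks later (13–15 days), each species was scored visually relative to controls, from 0 for no effect to 100 for complete control.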

wheat = experiment: Test C postemergence; assay type: in vivo, Triticum aestivum
Summary of the method: as §1

pigweed = experiment: Test C preemergence; assay type: in vivo, Amaranthus retroflexus; conditions: for Pigweed plant response rating: scale 0 to 100 (0 no effect, 100 complete control)
Summary of the method: as §1

ragweed [2] = experiment: Test C preemergence; assay type: in vivo, Ambrosia elation; conditions: for Ragweed plant response rating: scale 0 to 100 (0 no effect, 100 complete control)
Summary of the method: as §1

oilseed rape = experiment: Test C preemergence; assay type: in vivo, Brassica napus; conditions: for Oilseed Rape plant response rating: scale 0 to 100 (0 no effect, 100 complete control)
Summary of the method: as §1

lambsquarters = experiment: Test C postemergence; assay type: in vivo, Chenopodium album
Summary of the method: as §1

velvetleaf = experiment: Test C postemergence; assay type: in vivo, Abutilon theophrasti
Summary of the method: as §1

waterhemp = experiment: Test C postemergence; assay type: in vivo, Amaranthus rudis
Summary of the method: as §1

ragweed [3] = experiment: Test C postemergence; assay type: in vivo, Ambrosia elation
Summary of the method: as §1

foxtail, giant = experiment: Test A postemergence; assay type: in vivo, Setaria faberii
Summary of the method: (§2)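 Visual injury rating, 0–100 (0 no effect, 100 complete control), vs untreated controls ~10 days after treatment in greenhouse. Pre: directed soil spray on seeded loam/sand. Post: 2–10 cm plants, 1–2 leaf stage. Formulation: non-phytotoxic solvent mix + surfactant.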

soybean [4] = experiment: Test C preemergence; assay type: in vivo, Glycine max; conditions: for Soybean plant response rating: scale 0 to 100 (0 no effect, 100 complete control)
Summary of the method: as §1

corn [5] = experiment: Test A postemergence; assay type: in vivo, Zea mays
Summary of the method: as §2

soybean [6] = experiment: Test C postemergence; assay type: in vivo, Glycine max
Summary of the method: as §1

[7] = Postemergence, 31 g ai/ha, visually evaluated after 13 to 15 days
[8] = postemergence, 62 g ai/ha, scale 0 to 100
[9] = postemergence, 250 g ai/ha, scale 0 to 100 (0 no effect, 100 complete control)
[10] = postemergence, 125 g ai/ha, scale 0 to 100, 0 no effect, 100 complete control
[11] = preemergence, 31 g ai/ha, visual rating, 13 to 15 days
[12] = preemergence, 62 g ai/ha, 13 to 15 days
[13] = preemergence, 125 g ai/ha, 13 to 15 days, scale 0 to 100, 0 = no effect, 100 = complete control
[14] = Postemergence, 500 g ai/ha, 0 to 100 scale (0 no effect, 100 complete control)
[15] = postemergence, 125 g ai/ha, about 10 days, visual rating on 0 to 100 scale (0 no effect, 100 complete control)

CCOc1cc(C(=O)NCC(F)(F)F)nn1Cc1ccnc(OC(F)F)c1 [Compound 128]
Plant response rating (scale of 0 to 100 where 0 is no effect and 100 is complete control), Corn (corn [1]; [7]): 5 | Corn plant response rating (corn [1]; [8]): 5 | Plant response rating, Corn (corn [1]; [9]): 30 | Plant response rating, Corn (corn [1]; [10]): 10 | Plant response rating (scale of 0 to 100 where 0 is no effect and 100 is complete control), Wheat (wheat; [7]): 5 | Wheat plant response rating (wheat; [8]): 5 | Plant response rating, Wheat (wheat; [9]): 5 | Plant response rating, Wheat (wheat; [10]): 10 | Plant response rating (scale of 0 to 100), Pigweed (pigweed; Preemergence, 250 g ai/ha): 100 | Pigweed plant response rating (pigweed; [11]): 100 | Pigweed plant response rating (pigweed; [12]): 100 | Plant response rating, Pigweed (pigweed; [13]): 100 | Plant response rating (scale of 0 to 100), Ragweed (ragweed [2]; Preemergence, 250 g ai/ha): 90 | Ragweed plant response rating (ragweed [2]; [11]): 25 | Ragweed plant response rating (ragweed [2]; [12]): 65 | Plant response rating, Ragweed (ragweed [2]; [13]): 85 | Plant response rating (scale of 0 to 100), Oilseed Rape (oilseed rape; Preemergence, 250 g ai/ha): 100 | Oilseed Rape plant response rating (oilseed rape; [11]): 100 | Oilseed Rape plant response rating (oilseed rape; [12]): 100 | Plant response rating, Oilseed Rape (oilseed rape; [13]): 100 | Plant response rating (scale of 0 to 100 where 0 is no effect and 100 is complete control), Lambsquarters (lambsquarters; [7]): 60 | Lambsquarters plant response rating (lambsquarters; [8]): 80 | Plant response rating, Lambsquarters (lambsquarters; [9]): 98 | Plant response rating, Lambsquarters (lambsquarters; [10]): 95 | Plant response rating (scale of 0 to 100 where 0 is no effect and 100 is complete control), Velvetleaf (velvetleaf; [7]): 10 | Velvetleaf plant response rating (velvetleaf; [8]): 15 | Plant response rating, Velvetleaf (velvetleaf; [9]): 65 | Plant response rating, Velvetleaf (velvetleaf; [10]): 35 | Plant response rating (scale of 0 to 100 where 0 is no effect and 100 is complete control), Waterhemp (waterhemp; [7]): 60 | Waterhemp plant response rating (waterhemp; [8]): 65 | Plant response rating, Waterhemp (waterhemp; [9]): 95 | Plant response rating, Waterhemp (waterhemp; [10]): 70 | Plant response rating (scale of 0 to 100 where 0 is no effect and 100 is complete control), Ragweed (ragweed [3]; [7]): 50 | Ragweed plant response rating (ragweed [3]; [8]): 40 | Plant response rating, Ragweed (ragweed [3]; [9]): 85 | Plant response rating, Ragweed (ragweed [3]; [10]): 85 | Foxtail, Giant plant response rating (foxtail, giant; [14]): 100 | Foxtail, Giant plant response rating (foxtail, giant; [15]): 100 | Plant response rating (scale of 0 to 100), Soybean (soybean [4]; Preemergence, 250 g ai/ha): 90 | Soybean plant response rating (soybean [4]; [11]): 35 | Soybean plant response rating (soybean [4]; [12]): 55 | Plant response rating, Soybean (soybean [4]; [13]): 80 | Corn plant response rating (corn [5]; [14]): 90 | Corn plant response rating (corn [5]; [15]): 90 | Plant response rating (scale of 0 to 100 where 0 is no effect and 100 is complete control), Soybean (soybean [6]; [7]): 65 | Soybean plant response rating (soybean [6]; [8]): 95 | Plant response rating, Soybean (soybean [6]; [9]): 98 | Plant response rating, Soybean (soybean [6]; [10]): 95
